This is an account of results in patent publication US20090176726A1, “METHODS FOR TREATING MITF-RELATED DISORDERS” (priority 2005, published 2009).

Where two headings read alike, the source gives them in different places.

The subject of test [1] is MITF. The test is classed as cell-based, human.
The test system of test [2] is HIF-1α. The test is classed as cell-based, human.
The subject of another test is MITF mRNA. The test is classed as cell-based, human.
The test system of test [3] is MITF. In words: MITF protein level in human melanoma cells (UACC62). The test is classed as cell-based.
Test [4] relates to HIF-1α. In words: HIF-1α protein level in human melanoma cells (UACC62). The test is classed as cell-based.
In a further test the test system is FoxD1. The test is classed as cell-based, human.
The test system of test [5] is MITF. The experiment in a line: MITF expression in UACC62 cells transfected with constitutive MITF vector or empty vector. The conditions noted are these: increasing levels of DMOG. The test is classed as cell-based, human. From the text: (§1) Human melanoma cells (UACC62) were transfected with a vector that constitutively expresses MITF off a promoter different from its natural promoter. As a control, other cells were transfected with empty vector. Both cell types were exposed to increasing levels of DMOG, which mimics certain aspects of hypoxia in upregulating HIF.

Test [6] relates to Human melanoma cells (UACC62). In words: Cell death of transfected UACC62 cells exposed to DMOG. The test is classed as cell-based.
From the text: as §1

Where [7] appears, read: UACC62 cells transformed with empty vector.
Setting [8] is: UACC62 cells, 200 μM DFO, 0, 2, 6, 8 and 24 hrs, FIG. 4B.

Take `[Cl-].[Cl-].[Co+2]` [CoCl2]: the “level of MITF protein” value with MITF [1] is on record as “decreased as CoCl2 was increased”. In the test with HIF-1α [2], the “level of HIF-1α” value is on record as “increased as CoCl2 was increased”. Besides, in the test with MITF mRNA, the “MITF mRNA levels” value is on record as “decreased”. In addition, in the test with MITF [3], the MITF protein levels entry is listed as “decreased”, the “downregulation of MITF by CoCl2” value is recorded as “substantially blocked” and the “level of MITF protein” value was “decreased”. In the test on HIF-1α [4], the HIF-1α levels result is recorded as “increased” and the “level of HIF-1α protein” value was “increased”. Besides, the “FoxD1 expression (microarray)” value with FoxD1 was “upregulated”.

On to `COC(=O)CNC(=O)C(=O)OC` [DMOG, dimethyl-oxalylglycine], for which the “level of MITF protein” value in the test with MITF [3] (UACC62 cells, 1 mM DMOG, 0, 2, 6, 8 and 24 hrs, FIG. 4A) is given as “decreased”. In the test on HIF-1α [4] (UACC62 cells, 1 mM DMOG, 24 hours compared with 8 hours, FIG. 4A), the “HIF-1α levels at 24 hours” value is on record as “somewhat lower than at 8 hours”. The “HIF-1α protein level, 2 to 8 hours” value with HIF-1α [4] (UACC62 cells, 1 mM DMOG, FIG. 4A) is “increased steadily”. Besides, the MITF expression entry with MITF [5] (setting [7]) was “significant decrease”; in the test with MITF [5] (UACC62 cells transformed with vector that constitutively expresses MITF) it was “did not exhibit a detectable decrease”. In addition, the cell death entry in test [6] (UACC62 cells that constitutively express MITF, at DMOG levels lethal to empty vector cells) is “protected from cell death”; in test [6] (setting [7]), “lethal”.

Consider `CC(=O)N(O)CCCCCNC(=O)CCC(=O)N(O)CCCCCNC(=O)CCC(=O)N(O)CCCCCN` [DFO, desferrioxamine], for which the MITF protein levels entry in the test on MITF [3] (setting [8]) is listed as “decreased steadily”. Besides, the HIF-1α protein levels entry in the test on HIF-1α [4] (setting [8]) is “increased steadily”.
